Assay results published in ChEMBL document CHEMBL3638542, “Imidazo[1,2-a]pyridine derivatives: preparation and pharmaceutical applications” (2014).

What follows are molecules tested against Histone deacetylase 1 (Homo sapiens, UniProt Q13547) (assay: BIOMOL Fluorescent-Based Assay: The assay has been carried out in 96 well format and the BIOMOL fluorescent-based HDAC activity assay has been applied. The reaction composed of assay buffer, containing 25 mM Tris pH 7.5, 137 mM NaCl, 2.7 mM KCl, 1 mM MgCl2, 1 mg/ml BSA, tested compounds, an appropriate concentration of HDAC1 enzyme, 500 uM Flur de lys generic substrate for HDAC1 enzyme and subsequently was incubated at room temperature for 2 h. Flur de lys Developer was added and the reaction was incubated for 10 min. Briefly, deacetylation of the substrate sensitizes it to the developer, which then generates a fluorophore. The fluorophore is excited with 360 nm light and the emitted light (460 nm) is detected on a fluorometric plate reader (Tecan Ultra Microplate detection system, Tecan Group Ltd.).).
Chain of Histone deacetylase 1 (Q13547 whole entry): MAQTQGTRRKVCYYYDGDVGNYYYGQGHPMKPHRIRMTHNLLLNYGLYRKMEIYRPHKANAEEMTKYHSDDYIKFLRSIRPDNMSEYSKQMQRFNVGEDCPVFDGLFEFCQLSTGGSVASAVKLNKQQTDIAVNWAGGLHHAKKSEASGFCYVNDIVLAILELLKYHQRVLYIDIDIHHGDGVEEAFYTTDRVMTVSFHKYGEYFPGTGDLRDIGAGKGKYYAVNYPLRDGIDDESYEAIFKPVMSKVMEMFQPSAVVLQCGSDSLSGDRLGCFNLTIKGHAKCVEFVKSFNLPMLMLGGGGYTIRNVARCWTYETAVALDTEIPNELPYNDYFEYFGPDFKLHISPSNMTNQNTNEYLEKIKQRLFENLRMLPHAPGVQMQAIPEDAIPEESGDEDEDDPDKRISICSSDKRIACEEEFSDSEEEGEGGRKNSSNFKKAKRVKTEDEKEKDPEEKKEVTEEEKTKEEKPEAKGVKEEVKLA

| Compound | IC50 |
| --- | --- |
| COCCNc1c(CCC(=O)O)nc2ccc(/C=C/C(=O)NO)cn12 | 320 nM |
| CC(C)(C)Nc1c(C(=O)O)nc2ccc(/C=C/C(=O)NO)cn12 | > 10000 nM |
| CCCCCCc1nc2cc(/C=C/C(=O)NO)ccn2c1NCCC(=O)N(C)CC#N | > 10000 nM |
| CCCCc1nc2cc(/C=C/C(=O)NO)ccn2c1CN(CC)CC(C)CCC (centres undefined) | 60 nM |
